According to patent publication US20240425518A1, “N-MACROCYCLIC AMIDE COMPOUNDS, PREPARATION METHODS THEREOF AND APPLICATIONS THEREOF AS MEDICAMENTS” (Chengdu FANXI Biopharma Co., Ltd., priority 2023, published 2024):

Legend:
Assay type in all cases: biochemical
JAK2 (h) = molecular target: T1, JAK2 (h) (Homo sapiens, UniProt O60674); experiment: Radioisotope labeling kinase assay (Eurofins), JAK2
T1 construct: purchased Eurofins
Experimental: (§1) An activity to a human recombinant protein kinase of a series of compounds was determined by a radioisotope labeling method, which was provided by Eurofins Company. A compound to be detected was mixed with a corresponding protein kinase buffer (20 mM propyl sulfonate (MOPS, […].), 1 mM EDTA, 0.10 β-mercaptoethanol, 0.010 Brij-35, […], and 1 mg/mL BSA), the mixture was added into a reaction system (100 μM reaction substrate […], 8 mM MOPS with a pH value of 7.0, 10 mM MgAcetate, 0.2 mM EDTA, and a certain concentration of γ-^33P-ATP). After adding an MgATP composite solution, the reaction was started at room temperature for 40 minutes, and the reaction was terminated by adding 5 μl of […] solution. Then, 10 μl of reaction solution was dropwise added onto a filter and washed with 75 mM phosphoric acid solution for three times, 5 minutes each time, then washed with methanol once again, and dried and subjected to scintillation counting.

TrkA (h) = molecular target: T2, TrkA (h) (Homo sapiens, UniProt P04629); experiment: Radioisotope labeling kinase assay (Eurofins), TrkA
T2 construct: purchased Eurofins
Experimental: as §1

BTK (h) = molecular target: T3, BTK (h) (Homo sapiens, UniProt Q06187); experiment: Radioisotope labeling kinase assay (Eurofins), BTK; settings: for activity at 1 µM: 1 μM compound, read-out: Inhibitory activity per unit concentration/Activity % BTK (h)
T3 construct: purchased Eurofins
Experimental: as §1

Flt3 (h) = molecular target: T4, Flt3 (h) (Homo sapiens, UniProt P36888); experiment: Radioisotope labeling kinase assay (Eurofins), Flt3; settings: for activity at 1 µM: 1 μM compound, read-out: Inhibitory activity per unit concentration/Activity % Flt3 (h)
T4 construct: purchased Eurofins
T4 sequence (P36888 27-993): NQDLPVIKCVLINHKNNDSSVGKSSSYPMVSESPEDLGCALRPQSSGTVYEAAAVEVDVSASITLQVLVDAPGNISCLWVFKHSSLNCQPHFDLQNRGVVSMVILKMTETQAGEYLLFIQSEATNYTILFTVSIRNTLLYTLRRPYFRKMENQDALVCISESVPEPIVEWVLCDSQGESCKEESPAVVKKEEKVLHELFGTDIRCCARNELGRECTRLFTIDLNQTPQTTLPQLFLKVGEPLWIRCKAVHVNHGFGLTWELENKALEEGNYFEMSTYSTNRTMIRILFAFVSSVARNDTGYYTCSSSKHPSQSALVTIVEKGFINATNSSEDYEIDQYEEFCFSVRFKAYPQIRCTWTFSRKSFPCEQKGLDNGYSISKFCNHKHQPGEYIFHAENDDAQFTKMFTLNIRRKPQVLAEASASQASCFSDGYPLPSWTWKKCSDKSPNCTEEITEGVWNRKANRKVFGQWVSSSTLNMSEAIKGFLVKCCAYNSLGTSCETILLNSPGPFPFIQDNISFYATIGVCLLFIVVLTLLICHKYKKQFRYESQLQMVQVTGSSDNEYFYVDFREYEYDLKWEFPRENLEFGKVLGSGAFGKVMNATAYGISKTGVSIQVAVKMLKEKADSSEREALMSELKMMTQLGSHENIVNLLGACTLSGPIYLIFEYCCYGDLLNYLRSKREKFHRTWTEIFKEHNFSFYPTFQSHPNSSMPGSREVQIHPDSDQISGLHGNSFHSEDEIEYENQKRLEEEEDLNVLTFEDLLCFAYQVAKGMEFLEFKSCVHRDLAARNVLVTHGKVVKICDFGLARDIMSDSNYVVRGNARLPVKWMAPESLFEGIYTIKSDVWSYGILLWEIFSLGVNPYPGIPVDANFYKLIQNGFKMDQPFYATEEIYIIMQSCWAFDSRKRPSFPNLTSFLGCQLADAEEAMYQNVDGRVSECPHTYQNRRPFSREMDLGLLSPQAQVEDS
Experimental: as §1

JAK1 (h) = molecular target: T5, JAK1 (h) (Homo sapiens, UniProt P23458); experiment: Radioisotope labeling kinase assay (Eurofins), JAK1
T5 construct: purchased Eurofins
Experimental: as §1

JAK3 (h) = molecular target: T6, JAK3 (h) (Homo sapiens, UniProt P52333); experiment: Radioisotope labeling kinase assay (Eurofins), JAK3; settings: for activity at 1 µM: 1 μM compound, read-out: Inhibitory activity per unit concentration/Activity % JAK3 (h)
T6 construct: purchased Eurofins
T6 sequence (P52333 1-1124): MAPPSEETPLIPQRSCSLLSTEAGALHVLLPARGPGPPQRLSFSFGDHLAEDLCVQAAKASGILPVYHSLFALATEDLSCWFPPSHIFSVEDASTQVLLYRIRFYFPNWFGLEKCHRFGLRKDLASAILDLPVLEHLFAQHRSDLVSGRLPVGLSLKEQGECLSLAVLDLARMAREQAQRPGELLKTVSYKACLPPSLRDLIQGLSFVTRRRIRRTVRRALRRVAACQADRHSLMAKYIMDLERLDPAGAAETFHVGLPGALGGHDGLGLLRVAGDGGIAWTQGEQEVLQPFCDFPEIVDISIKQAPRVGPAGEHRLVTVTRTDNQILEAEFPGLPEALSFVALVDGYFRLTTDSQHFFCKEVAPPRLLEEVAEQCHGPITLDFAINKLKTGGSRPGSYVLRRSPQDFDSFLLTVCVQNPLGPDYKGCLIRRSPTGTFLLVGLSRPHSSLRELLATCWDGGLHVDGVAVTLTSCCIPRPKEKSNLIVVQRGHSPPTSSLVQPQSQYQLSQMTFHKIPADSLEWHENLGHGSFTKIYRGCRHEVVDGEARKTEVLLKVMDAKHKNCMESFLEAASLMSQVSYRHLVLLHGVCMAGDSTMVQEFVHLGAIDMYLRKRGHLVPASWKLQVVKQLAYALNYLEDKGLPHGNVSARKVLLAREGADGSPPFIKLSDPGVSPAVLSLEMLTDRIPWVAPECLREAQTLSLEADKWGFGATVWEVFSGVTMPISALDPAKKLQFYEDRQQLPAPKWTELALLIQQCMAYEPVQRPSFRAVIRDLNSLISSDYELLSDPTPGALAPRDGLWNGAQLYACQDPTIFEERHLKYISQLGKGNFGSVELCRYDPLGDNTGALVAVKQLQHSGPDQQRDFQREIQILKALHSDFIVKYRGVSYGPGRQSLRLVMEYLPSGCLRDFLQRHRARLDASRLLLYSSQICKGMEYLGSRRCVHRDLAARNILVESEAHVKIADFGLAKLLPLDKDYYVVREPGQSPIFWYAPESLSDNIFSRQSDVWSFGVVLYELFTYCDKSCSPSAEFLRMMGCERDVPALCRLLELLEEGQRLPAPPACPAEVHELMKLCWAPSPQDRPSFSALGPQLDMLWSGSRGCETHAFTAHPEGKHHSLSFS
Experimental: as §1

T3 sequence (Q06187 whole entry): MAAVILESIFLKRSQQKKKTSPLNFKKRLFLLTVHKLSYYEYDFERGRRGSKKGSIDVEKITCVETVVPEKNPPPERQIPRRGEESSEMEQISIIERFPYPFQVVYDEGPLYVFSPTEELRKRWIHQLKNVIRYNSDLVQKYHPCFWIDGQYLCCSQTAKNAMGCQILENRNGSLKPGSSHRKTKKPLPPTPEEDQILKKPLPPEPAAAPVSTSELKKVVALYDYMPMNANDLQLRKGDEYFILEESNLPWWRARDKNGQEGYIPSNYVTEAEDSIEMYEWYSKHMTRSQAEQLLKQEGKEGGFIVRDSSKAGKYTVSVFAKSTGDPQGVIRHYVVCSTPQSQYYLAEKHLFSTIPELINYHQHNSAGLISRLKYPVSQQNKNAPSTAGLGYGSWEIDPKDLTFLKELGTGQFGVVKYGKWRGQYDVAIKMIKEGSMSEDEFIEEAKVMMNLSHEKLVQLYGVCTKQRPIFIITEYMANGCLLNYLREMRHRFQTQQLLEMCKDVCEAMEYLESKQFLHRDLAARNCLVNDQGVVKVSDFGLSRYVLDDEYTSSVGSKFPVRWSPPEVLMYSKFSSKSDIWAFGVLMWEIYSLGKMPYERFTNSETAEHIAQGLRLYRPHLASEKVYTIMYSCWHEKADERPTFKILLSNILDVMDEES
T1 sequence (O60674 whole entry): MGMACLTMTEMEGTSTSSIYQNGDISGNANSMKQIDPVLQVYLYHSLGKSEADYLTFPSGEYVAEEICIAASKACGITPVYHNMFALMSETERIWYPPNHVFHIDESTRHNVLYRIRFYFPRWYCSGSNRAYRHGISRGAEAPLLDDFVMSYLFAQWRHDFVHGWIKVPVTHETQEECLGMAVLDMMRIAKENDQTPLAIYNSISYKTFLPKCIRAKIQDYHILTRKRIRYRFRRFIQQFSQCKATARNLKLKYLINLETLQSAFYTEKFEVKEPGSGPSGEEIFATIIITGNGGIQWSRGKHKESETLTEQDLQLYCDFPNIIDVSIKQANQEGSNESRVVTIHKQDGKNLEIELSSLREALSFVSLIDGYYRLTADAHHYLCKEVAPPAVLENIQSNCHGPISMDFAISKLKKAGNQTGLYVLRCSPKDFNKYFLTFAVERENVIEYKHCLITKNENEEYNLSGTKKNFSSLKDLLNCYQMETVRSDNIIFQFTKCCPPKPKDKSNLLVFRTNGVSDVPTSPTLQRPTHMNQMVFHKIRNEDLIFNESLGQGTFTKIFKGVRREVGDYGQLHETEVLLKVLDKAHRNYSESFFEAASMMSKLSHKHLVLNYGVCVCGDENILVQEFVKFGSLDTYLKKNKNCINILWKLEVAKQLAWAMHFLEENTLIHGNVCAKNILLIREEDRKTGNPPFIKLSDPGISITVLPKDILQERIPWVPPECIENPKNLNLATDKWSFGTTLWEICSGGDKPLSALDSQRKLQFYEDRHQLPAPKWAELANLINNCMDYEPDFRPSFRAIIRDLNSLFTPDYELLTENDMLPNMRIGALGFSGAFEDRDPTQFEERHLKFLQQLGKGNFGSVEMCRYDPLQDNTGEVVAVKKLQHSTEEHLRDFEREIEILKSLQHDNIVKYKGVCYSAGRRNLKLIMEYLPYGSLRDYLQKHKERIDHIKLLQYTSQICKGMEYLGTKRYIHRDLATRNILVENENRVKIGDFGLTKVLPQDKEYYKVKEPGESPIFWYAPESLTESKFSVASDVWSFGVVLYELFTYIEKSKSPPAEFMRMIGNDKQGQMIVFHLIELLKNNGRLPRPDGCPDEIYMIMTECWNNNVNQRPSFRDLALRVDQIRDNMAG
T2 sequence (P04629 33-796): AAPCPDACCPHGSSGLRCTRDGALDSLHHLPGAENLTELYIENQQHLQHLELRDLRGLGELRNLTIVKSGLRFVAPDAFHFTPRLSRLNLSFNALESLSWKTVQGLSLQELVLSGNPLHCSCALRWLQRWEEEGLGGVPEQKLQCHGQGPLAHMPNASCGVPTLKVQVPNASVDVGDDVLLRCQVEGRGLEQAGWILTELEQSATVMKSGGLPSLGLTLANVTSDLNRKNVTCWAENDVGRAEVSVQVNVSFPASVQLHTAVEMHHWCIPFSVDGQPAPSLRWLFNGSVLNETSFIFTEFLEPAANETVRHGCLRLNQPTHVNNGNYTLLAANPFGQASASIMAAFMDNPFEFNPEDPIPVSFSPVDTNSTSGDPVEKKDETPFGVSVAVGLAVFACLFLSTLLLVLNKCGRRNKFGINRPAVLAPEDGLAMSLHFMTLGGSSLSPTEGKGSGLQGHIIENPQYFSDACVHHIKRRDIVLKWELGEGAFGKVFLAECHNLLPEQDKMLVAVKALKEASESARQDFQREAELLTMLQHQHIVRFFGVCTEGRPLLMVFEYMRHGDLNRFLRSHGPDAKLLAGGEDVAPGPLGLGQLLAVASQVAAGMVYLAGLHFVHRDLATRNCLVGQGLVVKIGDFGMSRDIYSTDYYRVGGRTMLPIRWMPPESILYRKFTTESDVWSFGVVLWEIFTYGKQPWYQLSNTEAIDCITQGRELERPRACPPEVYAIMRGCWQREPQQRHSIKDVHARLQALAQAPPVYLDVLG
T5 sequence (P23458 whole entry): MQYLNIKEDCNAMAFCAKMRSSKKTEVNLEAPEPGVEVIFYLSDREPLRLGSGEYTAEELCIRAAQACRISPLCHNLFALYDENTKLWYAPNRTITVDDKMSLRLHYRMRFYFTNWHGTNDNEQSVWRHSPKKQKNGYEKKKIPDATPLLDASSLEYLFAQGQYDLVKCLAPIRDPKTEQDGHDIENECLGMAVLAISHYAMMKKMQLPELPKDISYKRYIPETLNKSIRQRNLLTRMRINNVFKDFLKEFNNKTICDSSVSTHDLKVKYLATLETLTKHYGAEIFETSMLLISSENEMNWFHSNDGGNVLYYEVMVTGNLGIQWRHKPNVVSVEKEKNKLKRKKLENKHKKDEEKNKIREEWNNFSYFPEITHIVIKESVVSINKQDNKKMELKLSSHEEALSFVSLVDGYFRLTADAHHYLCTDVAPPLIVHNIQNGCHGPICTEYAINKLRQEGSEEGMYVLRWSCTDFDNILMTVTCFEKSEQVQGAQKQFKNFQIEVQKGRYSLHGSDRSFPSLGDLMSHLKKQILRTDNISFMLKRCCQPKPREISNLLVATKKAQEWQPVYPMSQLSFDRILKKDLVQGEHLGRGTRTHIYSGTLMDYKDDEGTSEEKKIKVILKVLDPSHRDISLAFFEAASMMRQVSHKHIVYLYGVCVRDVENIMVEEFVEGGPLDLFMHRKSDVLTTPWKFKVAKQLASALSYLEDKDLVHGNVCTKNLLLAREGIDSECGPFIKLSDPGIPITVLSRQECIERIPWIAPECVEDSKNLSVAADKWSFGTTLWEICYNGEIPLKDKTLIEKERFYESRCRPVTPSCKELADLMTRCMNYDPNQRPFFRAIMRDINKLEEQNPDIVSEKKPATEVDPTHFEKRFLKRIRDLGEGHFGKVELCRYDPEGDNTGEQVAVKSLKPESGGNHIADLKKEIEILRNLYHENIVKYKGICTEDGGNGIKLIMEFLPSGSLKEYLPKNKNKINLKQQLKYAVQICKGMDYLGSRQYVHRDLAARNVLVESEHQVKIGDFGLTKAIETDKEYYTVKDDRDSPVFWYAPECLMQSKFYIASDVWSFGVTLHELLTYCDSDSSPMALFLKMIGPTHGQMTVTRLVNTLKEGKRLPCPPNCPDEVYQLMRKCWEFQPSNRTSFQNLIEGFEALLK

| SMILES | IC50 (JAK2 (h)) [µM] | IC50 (TrkA (h)) [µM] | IC50 (BTK (h)) [µM] | activity at 1 µM (BTK (h)) [%] | IC50 (Flt3 (h)) [µM] | activity at 1 µM (Flt3 (h)) [%] | IC50 (JAK1 (h)) [µM] | activity at 1 µM (JAK3 (h)) [%] | IC50 (JAK3 (h)) [µM] |
| --- | --- | --- | --- | --- | --- | --- | --- | --- | --- |
| Nc1cc2cc(c1)Nc1nccc(n1)-c1cccc(c1)COC/C=C/COC2 [XIII-1] | 0.006 | 0.002 | 0.157 | 6 | 0.008 | 4 | 0.017 | 10 |  |
| O=C(/C=C/CN1CCCC1)Nc1cc2cc(c1)Nc1nccc(n1)-c1cccc(c1)COC/C=C/COC2 [XVI-1] | 0.009 | 0.001 | 0.029 | 2 | 0.002 | 1 | 0.069 | 9 |  |
| O=C(/C=C/CN1CCOCC1)Nc1cc2cc(c1)Nc1nccc(n1)-c1cccc(c1)COC/C=C/COC2 [XVI-3] | 0.006 | 0.002 | 0.04 | 7 | 0.004 | 3 | 0.044 | 8 |  |
| C/C=C/C(=O)Nc1cc2cc(c1)Nc1nccc(n1)-c1cccc(c1)COC/C=C/COC2 [XVI-4] | 0.01 | 0.002 | 0.238 | 9 | 0.005 | 5 | 0.044 | 11 |  |
| C=CC(=O)Nc1cc2cc(c1)Nc1nccc(n1)-c1cccc(c1)COC/C=C/COC2 [XVI-6] | 0.016 | 0.002 | 0.348 | 16 | 0.015 | 5 | 0.106 | 16 |  |
| CN(C)C/C=C/C(=O)Nc1cc2cc(c1)Nc1nccc(n1)-c1cccc(c1)COC/C=C/COC2 [XVI-8] | 0.029 | 0.003 | 0.048 | 9 | 0.009 | 2 | 0.262 | 19 |  |
| O=C(O)/C=C/C(=O)Nc1cc2cc(c1)Nc1nccc(n1)-c1cccc(c1)COC/C=C/COC2 [XVI-9] | 0.007 | 0.003 |  | 62 | 0.031 | 4 | 0.019 | 4 | 0.017 |

The remaining lines, values ahead:

| IC50 (JAK2 (h)) [µM] | IC50 (TrkA (h)) [µM] | IC50 (BTK (h)) [µM] | activity at 1 µM (BTK (h)) [%] | IC50 (Flt3 (h)) [µM] | activity at 1 µM (Flt3 (h)) [%] | IC50 (JAK1 (h)) [µM] | activity at 1 µM (JAK3 (h)) [%] | IC50 (JAK3 (h)) [µM] | SMILES |
| --- | --- | --- | --- | --- | --- | --- | --- | --- | --- |
| 0.017 | 0.016 |  | 31 | 0.021 | 3 | 0.089 | 2 | 0.044 | O=C(/C=C/C(=O)N1CCOCC1)Nc1cc2cc(c1)Nc1nccc(n1)-c1cccc(c1)COC/C=C/COC2 [XVI-10] |
| 0.038 | 0.021 |  | 18 | 0.022 | 1 | 0.167 | 6 | 0.151 | O=C(/C=C/C(=O)N1CCNCC1)Nc1cc2cc(c1)Nc1nccc(n1)-c1cccc(c1)COC/C=C/COC2 [XVI-11] |
| 0.124 | 0.018 |  | 38 | 0.015 | -8 | 0.492 | 26 |  | C1=C/COCc2cccc(c2)-c2ccnc(n2)Nc2cc(cc(OC/C=C/CN3CCCC3)c2)COC/1 [XVI-12] |
| 0.328 | 0.028 | 1.25 | 50 | 0.021 | 7 | 0.136 | 74 |  | CN(C)C/C=C/C(=O)Nc1cc2cc(c1)Nc1nccc(n1)-c1cccc(c1)COC/C=C/CN(C)C2 [XVI-26] |
| 0.086 | 0.02 | 1.47 | 57 | 0.009 | 8 | 0.04 | 51 |  | C/C=C/C(=O)Nc1cc2cc(c1)Nc1nccc(n1)-c1cccc(c1)COC/C=C/CN(C)C2 [XVI-28] |
| 0.013 | 0.002 |  | 8 | 0.007 | 4 | 0.033 | 16 |  | C#CC(=O)Nc1cc2cc(c1)Nc1nccc(n1)-c1cccc(c1)COC/C=C/COC2 [XVII-1] |
